Source: US11649255B2, “Indazoles as hematopoietic progenitor kinase 1 (HPK1) inhibitors and methods using same” (1st Biotherapeutics, Inc., priority 2020, dated 2023)
pIC50: −log10 of the molar value.

These compounds were tested against recombinant human HPK1 (Homo sapiens (Human), UniProt Q92918) (assay: HPK1 kinase assay (ADP-Glo)). Conditions: 25 μM ATP, MBP substrate.
Format: biochemical
Outline: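 Activity was read as ADP formed, detected by ADP-Glo luminescence after the reaction of 5 ng recombinant human HPK1 with MBP and ATP (stocks 0.5 μg/μl and 25 μM) for 40 min at 30 °C. Buffer was Tris pH 7.5 with MgCl2, BSA and DTT, with compound in 0.5% DMSO. IC50 came from inhibition curves.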

recombinant human HPK1, sequence (Q92918 whole entry): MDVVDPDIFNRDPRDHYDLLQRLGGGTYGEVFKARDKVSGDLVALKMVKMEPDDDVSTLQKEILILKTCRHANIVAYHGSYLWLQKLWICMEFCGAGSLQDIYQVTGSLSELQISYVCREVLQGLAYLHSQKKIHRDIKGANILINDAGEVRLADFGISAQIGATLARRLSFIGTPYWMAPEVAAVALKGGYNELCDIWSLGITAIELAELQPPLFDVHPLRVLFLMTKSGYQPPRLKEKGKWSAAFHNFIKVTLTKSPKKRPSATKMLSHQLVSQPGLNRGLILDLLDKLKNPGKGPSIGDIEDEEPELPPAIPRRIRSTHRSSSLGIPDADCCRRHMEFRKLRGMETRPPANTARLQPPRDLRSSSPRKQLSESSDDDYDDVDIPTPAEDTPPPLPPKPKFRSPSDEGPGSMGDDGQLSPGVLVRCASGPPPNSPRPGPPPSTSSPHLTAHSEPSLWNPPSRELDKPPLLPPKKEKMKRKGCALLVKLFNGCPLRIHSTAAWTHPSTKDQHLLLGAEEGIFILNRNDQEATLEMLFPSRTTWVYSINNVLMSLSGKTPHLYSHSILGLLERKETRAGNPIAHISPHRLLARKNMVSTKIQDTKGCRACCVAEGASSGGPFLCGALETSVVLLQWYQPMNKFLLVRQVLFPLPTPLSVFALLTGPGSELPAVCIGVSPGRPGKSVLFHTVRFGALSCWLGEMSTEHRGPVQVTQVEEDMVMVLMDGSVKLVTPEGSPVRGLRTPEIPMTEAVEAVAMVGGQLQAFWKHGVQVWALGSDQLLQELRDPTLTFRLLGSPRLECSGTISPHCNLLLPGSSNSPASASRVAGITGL

`CNC(=O)OCCN(C)c1c(F)c(C)c(-c2ccn3nc(NC(=O)[C@@H]4C[C@@H]4F)cc3c2)c2cn[nH]c12` [Example 580, 2-((6-fluoro-4-(2-((1S,2S)-2-fluorocyclopropane-1-carboxamido)pyrazolo[1,5-a]pyridin-5-yl)-5-methyl-1H-indazol-7-yl)(methyl)amino)ethyl methylcarbamate] and `CC(=O)N(CC#N)c1c(F)c(Cl)c(-c2ccn3nc(NC(=O)[C@@H]4C[C@@H]4F)cc3c2)c2cn[nH]c12` [Example 615, (1S,2S)-N-(5-(5-chloro-7-(N-(cyanomethyl)acetamido)-6-fluoro-1H-indazol-4-yl)pyrazolo[1,5-a]pyridin-2-yl)-2-fluorocyclopropane-1-carboxamide] cannot be ordered by pIC50: over 7.00 for the first, over 7.00 for the second.

First: N#Cc1ccc2[nH]ncc2c1-c1ccn2nc(NC(=O)[C@@H]3C[C@@H]3F)cc2c1 [Example 456, (1S,2S)-N-(5-(5-cyano-1H-indazol-4-yl)pyrazolo[1,5-a]pyridin-2-yl)-2-fluorocyclopropane-1-carboxamide]
Second: CCc1c(F)cc2[nH]ncc2c1-c1ccn2nc(NC(=O)[C@@H]3C[C@@H]3F)cc2c1 [Example 466, (1S,2S)-N-(5-(5-ethyl-6-fluoro-1H-indazol-4-yl)pyrazolo[1,5-a]pyridin-2-yl)-2-fluorocyclopropane-1-carboxamide]
The pIC50 of the first is lower: 6.00 to 6.30 for the first, over 7.00 for the second. The second is the more potent here.

`Cc1c(F)c(N(C)CCO)c2[nH]ncc2c1-c1ccc2nc(NC(=O)[C@@H]3C[C@@H]3F)sc2n1` [Example 204, (1S,2S)-2-fluoro-N-(5-(6-fluoro-7-((2-hydroxyethyl)(methyl)amino)-5-methyl-1H-indazol-4-yl)thiazolo[5,4-b]pyridin-2-yl)cyclopropane-1-carboxamide] and `CC(=O)NCCSc1c(F)c(Cl)c(-c2ccc3nc(NC(=O)[C@@H]4C[C@@H]4F)sc3c2)c2cn[nH]c12` [Example 73, (1S,2S)-N-(6-(7-((2-acetamidoethyl)thio)-5-chloro-6-fluoro-1H-indazol-4-yl)benzo[d]thiazol-2-yl)-2-fluorocyclopropane-1-carboxamide] cannot be ordered by pIC50: over 7.00 for the first, over 7.00 for the second.

`CCNc1c(F)c(Cl)c(-c2ccc3nc(NC(=O)[C@@H]4C[C@@H]4F)cn3c2)c2cn[nH]c12` [Example 280, (1S,2S)-N-(6-(5-chloro-7-(ethylamino)-6-fluoro-1H-indazol-4-yl)imidazo[1,2-a]pyridin-2-yl)-2-fluorocyclopropane-1-carboxamide] and `CC(Nc1c(F)c(Cl)c(-c2ccc3nc(NC(=O)[C@@H]4C[C@@H]4F)cn3c2)c2cn[nH]c12)C1CC1` (stereo partly drawn) [Example 420, (1S,2S)-N-(6-(5-chloro-7-((1-cyclopropylethyl)amino)-6-fluoro-1H-indazol-4-yl)imidazo[1,2-a]pyridin-2-yl)-2-fluorocyclopropane-1-carboxamide] cannot be ordered by pIC50: over 7.00 for the first, over 7.00 for the second.

`CC(NC=O)c1c(F)c(Cl)c(-c2ccc3nc(NC(=O)[C@@H]4C[C@@H]4F)cn3c2)c2cn[nH]c12` (stereo partly drawn) [Example 426, (1S,2S)-N-(6-(5-chloro-6-fluoro-7-(1-formamidoethyl)-1H-indazol-4-yl)imidazo[1,2-a]pyridin-2-yl)-2-fluorocyclopropane-1-carboxamide] and `COC(C)(C)c1c(F)c(Cl)c(-c2ccc3nc(NC(=O)[C@@H]4C[C@@H]4F)cn3c2)c2cn[nH]c12` [Example 395, (1S,2S)-N-(6-(5-chloro-6-fluoro-7-(2-methoxypropan-2-yl)-1H-indazol-4-yl)imidazo[1,2-a]pyridin-2-yl)-2-fluorocyclopropane-1-carboxamide] cannot be ordered by pIC50: over 7.00 for the first, over 7.00 for the second.

`CC(=O)c1c(F)c(Cl)c(-c2ccn3nc(NC(=O)[C@@H]4C[C@@H]4F)cc3c2)c2cn[nH]c12` [Example 575, (1S,2S)-N-(5-(7-acetyl-5-chloro-6-fluoro-1H-indazol-4-yl)pyrazolo[1,5-a]pyridin-2-yl)-2-fluorocyclopropane-1-carboxamide] was tested, and the pIC50 was over 7.00.
